Measured values published in patent publication US9302999B2, “Substituted triazoles as herbicides” (E. I. DU PONT DE NEMOURS AND COMPANY, priority 2012, dated 2016).

What was measured:
Format in all cases: in vivo
[1] = system: radish, wild (wild radish, Raphanus raphanistrum); experiment: Test D pre-/postemergence: radish, wild
Text: Seeds of plant species selected from bluegrass (annual bluegrass, Poa annua), blackgrass (Alopecurus myosuroides), canarygrass (Phalaris minor), chickweed (common chickweed, Stellaria media), galium (catchweed bedstraw, Galium aparine), bromegrass, downy (downy bromegrass, Bromus tectorum), field poppy (Papaver rhoeas), field violet (Viola arvensis), foxtail, green (green foxtail, Setaria viridis), deadnettle (henbit deadnettle, Lamium amplexicaule), ryegrass, Italian (Italian ryegrass, Lolium multiflorum), kochia (Kochia scoparia), lambsquarters (Chenopodium album), oilseed rape (Brassica napus), pigweed (Amaranthus retroflexus), Russian thistle (Salsola iberica), chamomile (scentless chamomile, Matricaria inodora), speedwell (bird's-eye speedwell, Veronica persica), barley, spring (spring barley, Hordeum vulgare), wheat, spring (spring wheat, Triticum aestivum), buckwheat, wild (wild buckwheat, Polygonum convolvulus), mustard, wild (wild mustard, Sinapis arvensis), oat, wild (wild oat, Avena fatua), radish, wild (wild radish, Raphanus raphanistrum), windgrass (Apera spica-venti), barley, winter (winter barley, Hordeum vulgare), and wheat, winter (winter wheat, Triticum aestivum) were planted into a silt loam soil and treated preemergence with test chemicals formulated in a non-phytotoxic solvent mixture which included a surfactant. At the same time, these same crop and weed species were planted in pots containing the planting medium comprising spaghnum peat moss, vermiculite, wetting agent and starter nutrients and treated with postemergence applications of the test chemicals formulated in the same manner. Plants ranged in height from 2 to 18 cm (1- to 4-leaf stage).
(§1) Treated plants and controls were maintained in a controlled growth environment for 14 to 21 days after which time all species were compared to controls and visually evaluated. Plant response ratings, summarized in Table D, are based on a scale of 0 to 100 where 0 is no effect and 100 is complete control. A dash (-) response means no test result.

[2] = system: nutsedge, yellow (yellow nutsedge, Cyperus esculentus); experiment: Test E pre-/postemergence: nutsedge, yellow; details: Preemergence, scale 0 to 100
Text: (§2) Seeds of plant species selected from corn (Zea mays), soybean (Glycine max), velvetleaf (Abutilon theophrasti), lambsquarters (Chenopodium album), poinsettia, wild (wild poinsettia, Euphorbia heterophylla), pigweed, palmer (palmer pigweed, Amaranthus palmeri), waterhemp (common waterhemp, Amaranthus rudis), smartweed (ladysthumb smartweed, Polygonum persicaria), surinam grass (Brachiaria decumbens), crabgrass, large (large crabgrass, Digitaria sanguinalis), crabgrass, Brazil (Brazilian crabgrass, Digitaria horizontalis), panicum, fall (fall panicum, Panicum dichotomiflorum), foxtail, giant (giant foxtail, Setaria faberii), foxtail, green (green foxtail, Setaria viridis), goosegrass (Eleusine indica), johnsongrass (Sorghum halepense), ragweed (common ragweed, Ambrosia elation), barnyardgrass (Echinochloa crus-galli), sandbur (southern sandbur, Cenchrus echinatus), arrowleaf sida (Sida rhombifolia), ryegrass, Italian (Italian ryegrass, Lolium multiflorum), dayflower, (VA) (Virginia dayflower, Commelina virginica), field bindweed (Convolvulus arvensis), cocklebur (common cocklebur, Xanthium strumarium), morningglory (Ipomoea coccinea), nightshade (eastern black nightshade, Solanum ptycanthum), kochia (Kochia scoparia), nutsedge, yellow (yellow nutsedge, Cyperus esculentus) and beggarticks (hairy beggarticks, Bidens pilosa) were planted into a silt loam soil and treated preemergence with test chemicals formulated in a non-phytotoxic solvent mixture which included a surfactant. At the same time, plants selected from these crop and weed species were planted in pots containing a growing medium comprising spaghnum peat moss, vermiculite, wetting agent and starter nutrients and treated with postemergence applications of some of the test chemicals formulated in the same manner. Plants ranged in height from 2 to 18 cm for postemergence treatments (1- to 4-leaf stage).
as §1, with “greenhouse” for “controlled growth environment”, “days,” for “days”, “E,” for “D,”

[3] = system: pigweed, palmer (palmer pigweed, Amaranthus palmeri); experiment: Test E pre-/postemergence: pigweed, palmer; details: scale 0 to 100
Text: as §2
as §1, with “greenhouse” for “controlled growth environment”, “days,” for “days”, “E,” for “D,”

[4] = system: surinam grass (Brachiaria decumbens); experiment: Test F pre-/postemergence: surinam grass; details: Preemergence
Text: (§3) Seeds of plant species selected from corn (Zea mays), soybean (Glycine max), velvetleaf (Abutilon theophrasti), lambsquarters (Chenopodium album), poinsettia, wild (wild poinsettia, Euphorbia heterophylla), pigweed, palmer (palmer pigweed, Amaranthus palmeri), waterhemp (common waterhemp, Amaranthus rudis), surinam grass (Brachiaria decumbens), crabgrass, Brazil (Brazilian crabgrass, Digitaria horizontalis), panicum, fall (fall panicum Panicum dichotomiflorum), crabgrass, large (large crabgrass, Digitaria sanguinalis), foxtail, giant (giant foxtail, Setaria faberii), foxtail, green (green foxtail Setaria viridis), goosegrass (Eleusine indica), ragweed (common ragweed, Ambrosia elatior), barnyardgrass (Echinochloa crus-galli), sandbur (southern sandbur, Cenchrus echinatus), arrowleaf sida (Sida rhombifolia), ryegrass, Italian (Italian ryegrass, Lolium multiflorum), dayflower, VA (Virginia (VA) dayflower, Commelina virginica), field bindweed (Convolvulus arvensis), cocklebur (common cocklebur, Xanthium strumarium), morningglory (Ipomoea coccinea), nightshade (eastern black nightshade, Solanum ptycanthum), kochia (Kochia scoparia), nutsedge, yellow (yellow nutsedge, Cyperus esculentus), johnsongrass (Sorghum halepense), smartweed (ladysthumb smartweed, Polygonum persicaria), and beggarticks (hairy beggarticks, Bidens pilosa), were planted into a silt loam soil and treated preemergence with test chemicals formulated in a non-phytotoxic solvent mixture which included a surfactant. At the same time, plants selected from these crop and weed species and also pigweed (Amaranthus retroflexus), waterhemp_RES1 (ALS/Triazine resistant common waterhemp, Amaranthus rudis) and waterhemp_RES2 (ALS/HPPD resistant common waterhemp, Amaranthus rudis) were planted in pots containing a planting medium comprising spaghnum peat moss, vermiculite, wetting agent and starter nutrients treated with postemergence applications of some of the test chemicals formulated in the same manner. Plants ranged in height from 2 to 18 cm for postemergence treatments (1- to 4-leaf stage).
as §1, with “greenhouse” for “controlled growth environment”, “days,” for “days”, “E,” for “D,”

[5] = system: crabgrass, large (large crabgrass, Digitaria sanguinalis); experiment: Test F pre-/postemergence: crabgrass, large; details: Preemergence
Text: as §3
as §1, with “greenhouse” for “controlled growth environment”, “days,” for “days”, “E,” for “D,”

[6] = system: arrowleaf sida (Sida rhombifolia); experiment: Test F pre-/postemergence: arrowleaf sida
Text: as §3
as §1, with “greenhouse” for “controlled growth environment”, “days,” for “days”, “E,” for “D,”

[7] = Postemergence, 31 g ai/ha, scale 0 to 100 (0 no effect, 100 complete control)
[8] = Postemergence, 62 g ai/ha, scale 0 to 100 (0 no effect, 100 complete control)
[9] = Postemergence, 125 g ai/ha, scale 0 to 100, 0 no effect, 100 complete control
[10] = Postemergence, 250 g ai/ha, scale 0 to 100 (0 no effect, 100 complete control)
[11] = Postemergence, 16 g ai/ha, scale 0 to 100
[12] = Preemergence, 16 g ai/ha, scale 0 to 100 (0 no effect, 100 complete control)
[13] = Preemergence, 31 g ai/ha, scale 0 to 100 (0 no effect, 100 complete control)
[14] = Preemergence, 62 g ai/ha, scale 0 to 100
[15] = Preemergence, 125 g ai/ha, scale 0 to 100
[16] = Preemergence, 250 g ai/ha, scale 0 to 100
[17] = 16 g ai/ha, scale 0 to 100 (0 no effect, 100 complete control)
[18] = 31 g ai/ha, scale 0 to 100 (0 no effect, 100 complete control)

Cc1nn(-c2ccc(F)cc2)nc1Cc1ccnc(C(F)(F)F)c1 [Compound 16, 4-[[2-(4-fluorophenyl)-5-methyl-2H-1,2,3-triazol-4-yl]methyl]-2-(trifluoromethyl)pyridine]
Plant response rating: Radish, Wild [1, 7]: 100 | Plant response rating: Radish, Wild [1, 8]: 100 | Plant response rating: Radish, Wild [1, 9]: 100 | Plant response rating: Radish, Wild [1, 10]: 100 | Plant response rating, Radish, Wild [1, 11]: 90 | Plant response rating: Nutsedge, Yellow ([2]; 8 g ai/ha): 0 | Plant response rating: Nutsedge, Yellow ([2]; 16 g ai/ha): 0 | Plant response rating: Nutsedge, Yellow ([2]; 31 g ai/ha): 0 | Plant response rating: Nutsedge, Yellow ([2]; 62 g ai/ha): 20 | Plant response rating: Nutsedge, Yellow ([2]; 125 g ai/ha): 20 | Plant response rating: Pigweed, Palmer ([3]; Preemergence, 8 g ai/ha): 95 | Plant response rating: Pigweed, Palmer ([3]; Preemergence, 16 g ai/ha): 98 | Plant response rating: Pigweed, Palmer ([3]; Preemergence, 31 g ai/ha): 98 | Plant response rating: Pigweed, Palmer ([3]; Preemergence, 62 g ai/ha): 98 | Plant response rating: Pigweed, Palmer ([3]; Preemergence, 125 g ai/ha): 100

Cc1nn(-c2ccc(C(F)(F)F)cc2)nc1Cc1ccnc(C(F)(F)F)c1 [Compound 47, 4-[[5-methyl-2-[4-(trifluoromethyl)phenyl]-2H-1,2,3-triazol-4-yl]methyl]-2-(trifluoromethyl)pyridine]
Plant response rating: Nutsedge, Yellow ([2]; 16 g ai/ha): 0 | Plant response rating: Nutsedge, Yellow ([2]; 31 g ai/ha): 0 | Plant response rating: Nutsedge, Yellow ([2]; 62 g ai/ha): 10 | Plant response rating: Nutsedge, Yellow ([2]; 125 g ai/ha): 10 | Plant response rating: Nutsedge, Yellow ([2]; 250 g ai/ha): 35 | Plant response rating: Pigweed, Palmer ([3]; Postemergence, 250 g ai/ha): 100 | Plant response rating: Pigweed, Palmer ([3]; Postemergence, 16 g ai/ha): 70 | Plant response rating: Pigweed, Palmer ([3]; Postemergence, 31 g ai/ha): 90 | Plant response rating: Pigweed, Palmer ([3]; Postemergence, 62 g ai/ha): 95 | Plant response rating: Pigweed, Palmer ([3]; Postemergence, 125 g ai/ha): 100 | Plant response rating: Pigweed, Palmer ([3]; Preemergence, 16 g ai/ha): 100 | Plant response rating: Pigweed, Palmer ([3]; Preemergence, 31 g ai/ha): 100 | Plant response rating: Pigweed, Palmer ([3]; Preemergence, 62 g ai/ha): 100 | Plant response rating: Pigweed, Palmer ([3]; Preemergence, 125 g ai/ha): 100 | Plant response rating: Pigweed, Palmer ([3]; Preemergence, 250 g ai/ha): 100

Cc1nn(-c2ccc(F)cc2)nc1Oc1ccnc(C(F)(F)F)c1 [Compound 129, 4-[[2-(4-fluorophenyl)-5-methyl-2H-1,2,3-triazol-4-yl]oxy]-2-(trifluoromethyl)pyridine]
Plant response rating: Radish, Wild [1, 7]: 90 | Plant response rating: Radish, Wild [1, 8]: 100 | Plant response rating: Radish, Wild [1, 9]: 100 | Plant response rating: Radish, Wild [1, 10]: 100 | Plant response rating, Radish, Wild [1, 11]: 90 | Plant response rating, Radish, Wild [1, 12]: 0 | Plant response rating, Radish, Wild [1, 13]: 0 | Plant response rating, Radish, Wild [1, 14]: 10 | Plant response rating, Radish, Wild [1, 15]: 100 | Plant response rating, Radish, Wild [1, 16]: 100 | Plant response rating: Nutsedge, Yellow ([2]; 8 g ai/ha): 0 | Plant response rating: Nutsedge, Yellow ([2]; 16 g ai/ha): 0 | Plant response rating: Nutsedge, Yellow ([2]; 31 g ai/ha): 0 | Plant response rating: Nutsedge, Yellow ([2]; 62 g ai/ha): 0 | Plant response rating: Nutsedge, Yellow ([2]; 125 g ai/ha): 20 | Plant response rating: Pigweed, Palmer ([3]; Preemergence, 8 g ai/ha): 30 | Plant response rating: Pigweed, Palmer ([3]; Preemergence, 16 g ai/ha): 80 | Plant response rating: Pigweed, Palmer ([3]; Preemergence, 31 g ai/ha): 100 | Plant response rating: Pigweed, Palmer ([3]; Preemergence, 62 g ai/ha): 100 | Plant response rating: Pigweed, Palmer ([3]; Preemergence, 125 g ai/ha): 100

Cc1nn(-c2ccnc(C(F)(F)F)c2)nc1Cc1ccnc(C(F)(F)F)c1 [Compound 137]
Plant response rating: Radish, Wild [1, 7]: 40 | Plant response rating: Radish, Wild [1, 8]: 90 | Plant response rating: Radish, Wild [1, 9]: 100 | Plant response rating: Radish, Wild [1, 10]: 100 | Plant response rating, Radish, Wild [1, 11]: 40

Fc1ccc(-n2nc(Cc3ccnc(C(F)(F)F)c3)c(OCC(F)(F)F)n2)cc1 [Compound 142]
Plant response rating, Surinam Grass [4, 17]: 5 | Plant response rating, Surinam Grass [4, 18]: 5 | Plant response rating, Surinam Grass ([4]; 125 g ai/ha, scale 0 to 100): 60 | Plant response rating, Crabgrass, Large [5, 18]: 20 | Plant response rating, Crabgrass, Large ([5]; 62 g ai/ha, scale 0 to 100): 98 | Plant response rating, Crabgrass, Large ([5]; 125 g ai/ha, scale 0 to 100): 100 | Plant response rating, Arrowleaf Sida [6, 12]: 0 | Plant response rating, Arrowleaf Sida [6, 13]: 30 | Plant response rating, Arrowleaf Sida [6, 14]: 30 | Plant response rating, Arrowleaf Sida [6, 15]: 35

Cc1nn(-c2ccc(F)c(F)c2)nc1Oc1ccnc(C(F)(F)F)c1 [Compound 145]
Plant response rating, Arrowleaf Sida ([6]; Postemergence, 8 g ai/ha, scale 0 to 100): 30 | Plant response rating, Arrowleaf Sida [6, 11]: 40 | Plant response rating, Arrowleaf Sida ([6]; Postemergence, 31 g ai/ha, scale 0 to 100): 50 | Plant response rating, Arrowleaf Sida ([6]; Postemergence, 62 g ai/ha, scale 0 to 100): 60 | Plant response rating, Arrowleaf Sida ([6]; Postemergence, 125 g ai/ha, scale 0 to 100): 70

Cc1nn(-c2ccc(F)c(C(F)(F)F)c2)nc1Oc1ccnc(C(F)(F)F)c1 [Compound 147]
Plant response rating: Radish, Wild [1, 7]: 100 | Plant response rating: Radish, Wild [1, 8]: 95 | Plant response rating: Radish, Wild [1, 9]: 100 | Plant response rating, Radish, Wild [1, 11]: 85 | Plant response rating, Radish, Wild [1, 13]: 10 | Plant response rating, Radish, Wild [1, 14]: 100 | Plant response rating, Radish, Wild [1, 15]: 100

CCCc1nn(-c2ccc(F)cc2)nc1Cc1ccnc(C(F)(F)F)c1 [Compound 153]
Plant response rating, Surinam Grass [4, 17]: 0 | Plant response rating, Surinam Grass [4, 18]: 5 | Plant response rating, Surinam Grass ([4]; 125 g ai/ha, scale 0 to 100): 75 | Plant response rating, Surinam Grass ([4]; 250 g ai/ha, scale 0 to 100): 98 | Plant response rating, Crabgrass, Large [5, 17]: 80 | Plant response rating, Crabgrass, Large [5, 18]: 95 | Plant response rating, Crabgrass, Large ([5]; 62 g ai/ha, scale 0 to 100): 100 | Plant response rating, Crabgrass, Large ([5]; 125 g ai/ha, scale 0 to 100): 100 | Plant response rating, Crabgrass, Large ([5]; 250 g ai/ha, scale 0 to 100): 100 | Plant response rating, Arrowleaf Sida [6, 12]: 5 | Plant response rating, Arrowleaf Sida [6, 13]: 5 | Plant response rating, Arrowleaf Sida [6, 14]: 25 | Plant response rating, Arrowleaf Sida [6, 15]: 25 | Plant response rating, Arrowleaf Sida [6, 16]: 65
